Measured values as given in US20040106626A1, “6-Membered unsaturated heterocyclic compounds useful for selective inhibition of the coagulation cascade” (Pharmacia Corporation, priority 2001, published 2004).

Experiments:
Format in all cases: biochemical
[1] = target: T1, recombinant soluble tissue factor and recombinant human factor VIIa (TF-VIIa) (Homo sapiens, UniProt P08709); experiment: TF-VIIa assay (chromogenic substrate hydrolysis); conditions: reported only as less than or greater than 0.1 uM
T1 construct: conversion of coagulation factor VII to VIIa by factor Xa; purchased American Diagnostica, Greenwich CT; host or cells: soluble TF made in house in E. coli
Procedure, shortened: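 Chromogenic read at OD405, compared with control for percent inhibition. Substrate N-methylsulfonyl-D-phe-gly-arg-p-nitroaniline at 0.4 mM is cleaved by recombinant human VIIa (2 nM) complexed with soluble TF (100 nM). Buffer: pH 8.0 Tris-HCl 50 mM, CaCl2 5 mM, NaCl 100 mM, BSA 0.1%.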

Human factor Xa = target: T2, Human factor Xa (Homo sapiens, UniProt P00742); experiment: Xa assay (chromogenic substrate S-2765); conditions: reported only as less than or greater than 30 uM; read-out: Factor Xa (II) IC50
T2 construct: purchased Enzyme Research Laboratories, South Bend Ind
Procedure, shortened: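 Chromogenic readout: S-2765 hydrolysis (0.15 mM) by 0.3 nM human FXa was monitored at 405 nm after 60 min at room temperature, with a time-zero background read. Buffer: 50 mM Tris-HCl, pH 8.0, 100 mM NaCl, 0.1% BSA. Inhibition is relative to buffer-only controls.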

Human thrombin = target: T3, Human thrombin (Homo sapiens, UniProt P00734); experiment: Thrombin assay (chromogenic substrate); conditions: reported only as less than or greater than 30 uM; read-out: Thrombin (II) IC50
T3 construct: converts prothrombin (II) to thrombin (IIa); purchased Calbiochem, La Jolla, Calif
Procedure, shortened: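 Percent inhibition derived by comparing OD405 nm of compound-treated and control samples. Thrombin cleavage of a p-nitroanilide chromogenic substrate provides the signal.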

[2] = tested on: Normal human pooled plasma; experiment: Prothrombin time (PT) clotting assay; conditions: concentration at which prothrombin time is prolonged by 2x normal, reported as less than or greater than 50 uM
Procedure, shortened: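 Normal human pooled plasma incubated with 100 uM compound or saline, then thromboplastin (human tissue factor) added and clotting time recorded in a coagulation machine. Compounds exceeding 3× normal PT (11.0 s) are titrated to find the concentration doubling PT.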

T2 sequence (P00742 235-488 limits assumed): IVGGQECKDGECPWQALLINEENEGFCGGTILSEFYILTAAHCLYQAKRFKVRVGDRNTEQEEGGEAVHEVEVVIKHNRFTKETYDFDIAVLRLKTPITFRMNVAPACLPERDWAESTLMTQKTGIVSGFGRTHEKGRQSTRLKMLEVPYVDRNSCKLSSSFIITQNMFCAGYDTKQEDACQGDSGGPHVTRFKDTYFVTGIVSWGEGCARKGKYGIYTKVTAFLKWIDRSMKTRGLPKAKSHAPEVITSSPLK
T2 sequence (P00742 41-179 limits assumed): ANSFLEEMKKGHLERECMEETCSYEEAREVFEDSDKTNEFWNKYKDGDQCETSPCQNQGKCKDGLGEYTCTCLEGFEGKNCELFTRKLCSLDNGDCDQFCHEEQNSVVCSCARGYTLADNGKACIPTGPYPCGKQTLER
T1 sequence (P08709 213-466 limits assumed): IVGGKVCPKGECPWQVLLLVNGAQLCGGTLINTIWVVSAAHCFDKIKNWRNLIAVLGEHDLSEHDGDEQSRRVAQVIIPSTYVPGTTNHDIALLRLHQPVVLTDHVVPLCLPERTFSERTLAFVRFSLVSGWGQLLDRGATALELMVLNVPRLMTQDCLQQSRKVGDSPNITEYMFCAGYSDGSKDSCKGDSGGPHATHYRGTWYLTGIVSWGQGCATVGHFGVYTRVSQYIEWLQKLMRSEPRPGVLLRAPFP
T1 sequence (P08709 61-212 limits assumed): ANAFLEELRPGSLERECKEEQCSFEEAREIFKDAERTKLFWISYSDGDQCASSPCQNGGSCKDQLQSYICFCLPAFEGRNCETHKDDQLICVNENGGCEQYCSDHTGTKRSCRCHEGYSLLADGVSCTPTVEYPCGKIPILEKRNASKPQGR
T1 sequence (P13726 33-251 partner limits assumed): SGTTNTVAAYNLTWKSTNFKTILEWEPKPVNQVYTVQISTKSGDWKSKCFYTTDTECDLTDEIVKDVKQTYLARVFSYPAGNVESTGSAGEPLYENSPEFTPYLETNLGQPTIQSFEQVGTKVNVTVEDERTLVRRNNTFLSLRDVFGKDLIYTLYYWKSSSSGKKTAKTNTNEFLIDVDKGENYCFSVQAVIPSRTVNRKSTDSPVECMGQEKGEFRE

Structure (SMILES) | IC50 [1] [nM] | IC50 (Human factor Xa) [µM] | IC50 (Human thrombin) [µM] | PT (Prothrombin time) 2xPT [2] [µM]
CC(C)Nc1ncc(-c2cc(N)cc(NS(=O)(=O)c3ccc(F)cc3F)c2)n(CC(=O)NCc2ccc(C(=N)N)cc2)c1=O [Example 94] | < 100 | > 30 | > 30 | <50.0
CC(C)Nc1ncc(-c2cc(N)cc(NS(=O)(=O)CCc3ccccc3)c2)n(CC(=O)NCc2ccc(C(=N)N)cc2)c1=O [Example 95] | < 100 | > 30 | > 30 | <50.0
CC(C)Nc1ncc(-c2cc(N)cc(NS(=O)(=O)c3ccccc3)c2)n(CC(=O)NCc2ccc(C(=N)N)cc2)c1=O [Example 96] | < 100 | > 30 | > 30 | <50.0
CC(C)Nc1ncc(-c2cc(N)cc(NCc3ccccc3)c2)n(CC(=O)NCc2ccc(C(=N)N)cc2)c1=O [Example 98] | < 100 | > 30 | > 30 | <50.0
CC(C)Nc1ncc(-c2cc(N)cc(NC(=O)Cc3ccccc3)c2)n(CC(=O)NCc2ccc(C(=N)N)cc2)c1=O [Example 99] | < 100 | > 30 | > 30 | <50.0
CC(C)Nc1ncc(-c2cc(N)cc(NC(=O)C3CCCC3)c2)n(CC(=O)NCc2ccc(C(=N)N)cc2)c1=O [Example 100] | < 100 | > 30 | < 30 | <50.0
CC(C)Nc1ncc(-c2cc(N)cc(NCCC(C)c3ccccc3)c2)n(CC(=O)NCc2ccc(C(=N)N)cc2)c1=O (stereo not drawn) [Example 101] | < 100 | > 30 | < 30 | <50.0
CC(C)CCNc1cc(N)cc(-c2cnc(NC(C)C)c(=O)n2CC(=O)NCc2ccc(C(=N)N)cc2)c1 [Example 102] | < 100 | > 30 | < 30 | <50.0

Now from value to compound, other results behind:

IC50 [1] [nM] | IC50 (Human factor Xa) [µM] | IC50 (Human thrombin) [µM] | Structure (SMILES) | PT (Prothrombin time) 2xPT [2] [µM]
< 100 | > 30 | > 30 | CC(C)Nc1ncc(-c2cc(N)cc(NCc3ccsc3)c2)n(CC(=O)NCc2ccc(C(=N)N)cc2)c1=O [Example 103] | <50.0
< 100 | > 30 | < 30 | CCCC(C)C(=O)Nc1cc(N)cc(-c2cnc(NC(C)C)c(=O)n2CC(=O)NCc2ccc(C(=N)N)cc2)c1 (stereo not drawn) [Example 104] | <50.0
< 100 | > 30 | > 30 | COc1cccc(CC(=O)Nc2cc(N)cc(-c3cnc(NC(C)C)c(=O)n3CC(=O)NCc3ccc(C(=N)N)cc3)c2)c1 [Example 105] | <50.0
< 100 | > 30 | > 30 | CC(C)Nc1ncc(-c2cc(N)cc(NC(=O)CCc3ccccc3)c2)n(CC(=O)NCc2ccc(C(=N)N)cc2)c1=O [Example 106] | <50.0
< 100 | > 30 | > 30 | CC(C)Nc1ncc(-c2cc(N)cc(NC(=O)CCC3CCCC3)c2)n(CC(=O)NCc2ccc(C(=N)N)cc2)c1=O [Example 107] | <50.0
< 100 | > 30 | < 30 | CCCc1ccc(C(=O)Nc2cc(N)cc(-c3cnc(NC(C)C)c(=O)n3CC(=O)NCc3ccc(C(=N)N)cc3)c2)cc1 [Example 108] | <50.0
< 100 | > 30 | < 30 | CC(C)Nc1ncc(-c2cc(N)cc(NC(=O)c3ccccc3)c2)n(CC(=O)NCc2ccc(C(=N)N)cc2)c1=O [Example 109] | <50.0
